Measurements as given in patent US10092002B2, “Herbicidal composition comprising nicosulfuron or its salt and S -metolachlor or its salt” (ISHIHARA SANGYO KAISHA, LTD., priority 2011, dated 2018).

Legend:
Format in all cases: in vivo
[1] = system: common cocklebur (Xanthium strumarium L.); assay: Test Example 1: foliar treatment of common cocklebur in pots, visual growth inhibition rate; conditions: foliar treatment at 4.3 to 4.8-leaf stage, 22nd day after treatment
Description: When the herbicidal activity in a case where two active ingredients are combined, is larger than the simple sum of the respective herbicidal activities of the two active ingredients (the expected activity), it is called a synergistic effect. The activity expected by the combination of two active ingredients can be calculated as follows (Colby S. R., “Weed”, vol. 15, p. 20-22, 1967). E1=α+β-(α×β÷100) In a case where three active ingredients are combined, the activity can be similarly calculated as follows. […] Upland field soil was put into a 1/1,000,000 ha pot, and seeds of common cocklebur (Xanthium strumarium L.) were sown. […] Dual Gold, manufactured by Syngenta Crop Protection AG), SC agent containing terbuthylazine as an active ingredient (tradename: Click, manufactured by BASF), SC agent containing mesotrione as an active ingredient (tradename: Callisto, manufactured by Syngenta Crop Protection AG) and WG agent containing prosulfuron as an active ingredient (tradename: Peak, manufactured by Syngenta Crop Protection AG) were diluted with water in an amount corresponding to 1,000 Uha, and applied for foliar treatment by a small sprayer. On the 22nd day after treatment, the state of growth of the common cocklebur was visually observed to determine the growth inhibition rate in accordance with the following evaluation standard. The growth inhibition rate (%) (measured value) and the growth inhibition rate (%) (calculated value) calculated by the Colby's formula are shown in Table 1.

[2] = system: Japanese millet (Echinochloa utilis Ohwi et Yabuno); assay: Test Example 2: soil treatment, Japanese millet, visual growth inhibition rate; conditions: soil treatment the day after sowing, 27th day after treatment
Description: When the herbicidal activity in a case where two active ingredients are combined, is larger than the simple sum of the respective herbicidal activities of the two active ingredients (the expected activity), it is called a synergistic effect. The activity expected by the combination of two active ingredients can be calculated as follows (Colby S. R., “Weed”, vol. 15, p. 20-22, 1967). E1=α+β−(α×β÷100) On the 22nd day after treatment, the state of growth of the common cocklebur was visually observed to determine the growth inhibition rate in accordance with the following evaluation standard. The growth inhibition rate (%) (measured value) and the growth inhibition rate (%) (calculated value) calculated by the Colby's formula are shown in Table 1. […] Upland field soil was put into a 1/1,000,000 ha pot, and seeds of Japanese millet (Echinochloa utilis Ohwi et Yabuno) were sown. […] On the 27th day after treatment, the state of growth of the Japanese millet was visually observed to determine the growth inhibition rate.

[3] = system: sunn-hemp (Crotalaria juncea L.); assay: Test Example 4: soil treatment, sunn-hemp, visual growth inhibition rate; conditions: soil treatment the day after sowing, 28th day after treatment
Description: In a case where three active ingredients are combined, the activity can be similarly calculated as follows. E2=(α+β+γ)−(αβ+αγ+βγ)/100+(αβγ)/10000 where α: growth inhibition rate when treated with x (g/ha) of herbicide X,
Growth inhibition rate (%)=0 (equivalent to the non-treated area) to 100 (complete kill)
Upland field soil was put into a 1/300,000 ha pot, and seeds of sunn-hemp (Crotalaria juncea L.) were sown.

[4] = system: Japanese bristlegrass (Setaria faberi Herrm); assay: Test Example 7: soil treatment, residual activity, Japanese bristlegrass sown 14 days after treatment; conditions: seeds sown on the 14th day after treatment, 21st day after sowing
Description: When the herbicidal activity in a case where two active ingredients are combined, is larger than the simple sum of the respective herbicidal activities of the two active ingredients (the expected activity), it is called a synergistic effect. The activity expected by the combination of two active ingredients can be calculated as follows (Colby S. R., “Weed”, vol. 15, p. 20-22, 1967). E1=α+β-(α×β÷100) On the 22nd day after treatment, the state of growth of the common cocklebur was visually observed to determine the growth inhibition rate in accordance with the following evaluation standard. The growth inhibition rate (%) (measured value) and the growth inhibition rate (%) (calculated value) calculated by the Colby's formula are shown in Table 1. […] Upland field soil was put into a 1/500,000 ha pot, and on the next day, predetermined amounts of […] Dual Gold (tradename) were diluted with water (corresponding to 300 L/ha) and applied for soil treatment by a small sprayer. On the 14th day after treatment, seeds of Japanese bristlegrass (Setaria faberi Herrm) and spotted knotweed, (Polygonum lapathifolium L.) were sown. On the 21st day after sowing, the state of growth of the Japanese bristlegrass and the spotted knotweed was visually observed to determined the growth inhibition rate.

Molecule	Growth inhibition rate (%) of common cocklebur, Measured value ([1]; dose 1000 g/ha)	Growth inhibition rate (%) of Japanese millet, Measured value ([2]; dose 500 g/ha)	Growth inhibition rate (%) of sunn-hemp, Measured value ([3]; dose 250 g/ha)	Growth inhibition rate (%) of sunn-hemp, Measured value ([3]; dose 2000 g/ha)	Growth inhibition rate (%) of Japanese bristlegrass, Measured value ([4]; dose 250 g/ha)	inhibition at 30 g/ha ([1]; Xanthium strumarium, dose 30 g/ha, read-out: Growth inhibition rate (%) of common cocklebur, Measured value)	inhibition at 15 g/ha ([2]; dose 15 g/ha, read-out: Growth inhibition rate (%) of Japanese millet, Measured value)	inhibition at 10 g/ha ([3]; Crotalaria juncea, dose 10 g/ha, read-out: Growth inhibition rate (%) of sunn-hemp, Measured value)	inhibition at 100 g/ha ([3]; Crotalaria juncea, dose 100 g/ha, read-out: Growth inhibition rate (%) of sunn-hemp, Measured value)	inhibition at 100 g/ha ([4]; Setaria faberi, dose 100 g/ha, read-out: Growth inhibition rate (%) of Japanese bristlegrass, Measured value)
a mixture of (aRS,1S)-2-chloro-6′-ethyl-N-(2-methoxy-1-methylethyl)aceto-o-toluidide (80 to 100%) and (aRS,1R)-2-chloro-6′-ethyl-N-(2-methoxy-1-methylethyl)aceto-o-toluidide (20 to 0%) [S-metolachlor]	0%	80%	0%	0%	10%	–	–	–	–	–
COc1cc(OC)nc(NC(=O)NS(=O)(=O)c2ncccc2C(=O)N(C)C)n1 [Nicosulfuron, 2-(4,6-dimethoxypyrimidin-2-ylcarbamoylsulfamoyl)-N,N-dimethylnicotinamide]	–	–	–	–	–	0%	5%	0%	0%	33%
